Patent US20250101436A1, “APTAMERS AND SMALL MOLECULE LIGANDS” (MeiraGTx UK II Limited, priority 2021, published 2025)

Tested on: luciferase gene expression in HEK 293 cells in response to Comp. 004
Test: Screen of riboswitch constructs with 12C6-1 variant aptamers (libraries N1-N5) against Comp. 004, luciferase in HEK 293 cells
Assay type: cell-based, human
Source text: Cloning of riboswitch constructs containing 12C6-1 variant aptamer sequences: 12C6-1 aptamer sequence was used as template, and nucleobases were randomized at certain position in the sequence. Aptamers incorporating random mutagenesis were synthesized by Integrated DNA Technologies, Inc. Golden Gate cloning strategy (New England Biolabs, NEB) was used to clone the synthesized aptamer sequences into intron-exon-intron cassette to replace the 12C6-1 aptamer in the Luci-12C6-1 riboswitch construct, generating riboswitch constructs containing variant aptamer sequences.
To further improve the riboswitch activity in responding to Comp. 004 and related compounds, the aptamer sequence 12C6-1 was subject to mutagenesis to generate aptamer variants, and the riboswitches containing the variant aptamers were screened against Comp. 004 for the ones that have improved dynamic range of induced gene expression (the fold induction), in comparison with the fold induction by parental riboswitch construct Luci-12C6-1. […] These loop or junction region alone or together with stem region in proximity were chosen for random mutagenesis to generate riboswitches with re-engineered aptamer sequences with improved activity.
Five aptamer libraries N1, N2, N3, N4 and N5 were generated by randomizing nucleotides at positions in J2-4, J2-3/J3-3a/J3a-2/P3, L3a, J4-5/J5-4/P4 and L5 regions of the parent 12C6-1 sequence, respectively (see FIGS. 3a and 3b). Single bacterial colonies were picked and plasmids containing variant riboswitch constructs were screened in HEK 293 cells for improved gene regulation activity in response to 25 µM Comp. 004 as compared to parent riboswitch construct Luci-12C6-1.

[1] = library N2 variant aptamers (J2-3, P3-J3-3a, J3a-2 randomized) of 12C6-1 in riboswitch constructs, in response to Comp. 004, HEK 293 cells
[2] = library N5 variant aptamers (L5, X16-X21 randomized) of 12C6-1 in riboswitch constructs, in response to Comp. 004 treatment, HEK 293 cells
[3] = library N1 (J2-4), HEK 293, 25 M [sic] Comp. 004

| Substance | Fold (induction of luciferase gene expression) [2] [fold] | other results |
| --- | --- | --- |
| N2_2C6 (CTGGGGAGTCCTTCATGC; chemistry not given here) |  | Fold (induction of luciferase gene expression) [1]: 0.9 fold |
| N2_2G10 (DNA CTGGGGAGTCCTTCATGC; chemistry not given here) |  | Fold (induction of luciferase gene expression) [1]: 1.0 fold |
| N5_1A11 (CTGGGGAGTCCT; chemistry not given here) | 793.5 |  |
| N5_1F2 (CTGGGGAGTCCT; chemistry not given here) | 415.1 |  |
| N1_2D3 (CTGGGGAGTCCTTCATGCGGGGC; chemistry not given here) |  | Fold (induction of luciferase gene expression) [3]: 5.40 fold |
| N5_2G10 (CTGGGGAGTCCT; chemistry not given here) | 1249.7 |  |
| N5_1A10 (CTGGGGAGTCCT; chemistry not given here) | 674.4 |  |
| N5_1C3 (CTGGGGAGTCCT; chemistry not given here) | 664.1 |  |
| N5_7E6 (DNA CTGGGGAGTCCT; chemistry not given here) | 1153.2 |  |
| N5_5B7 (CTGGGGAGTCCT; chemistry not given here) | 1317.2 |  |
| N5_1F9 (CTGGGGAGTCCT; chemistry not given here) | 685.1 |  |
| N5_1H2 (CTGGGGAGTCCT; chemistry not given here) | 386.6 |  |
| N5_2E6 (CTGGGGAGTCCT; chemistry not given here) | 685.6 |  |
| N2_2C7 (CTGGGGAGTCCTTCATGC; chemistry not given here) |  | Fold (induction of luciferase gene expression) [1]: 0.8 fold |
| N2_2D8 (DNA CTGGGGAGTCCTTCATGC; chemistry not given here) |  | Fold (induction of luciferase gene expression) [1]: 1.1 fold |
| N5_1D5 (CTGGGGAGTCCT; chemistry not given here) | 841.7 |  |
| N1_2F9 (CTGGGGAGTCCTTCATGCGGGGC; chemistry not given here) |  | Fold (induction of luciferase gene expression) [3]: 1.71 fold |
| N2_2D5 (DNA CTGGGGAGTCCTTCATGC; chemistry not given here) |  | Fold (induction of luciferase gene expression) [1]: 0.6 fold |
| N5_5D9 (CTGGGGAGTCCT; chemistry not given here) | 712.5 |  |
| N1_2F11 (CTGGGGAGTCCTTCATGCGGGGC; chemistry not given here) |  | Fold (induction of luciferase gene expression) [3]: 150.18 fold |
| N5_1D3 (CTGGGGAGTCCT; chemistry not given here) | 697.1 |  |
| N5_7D3 (DNA CTGGGGAGTCCT; chemistry not given here) | 1075.7 |  |
| N1_2D12 (CTGGGGAGTCCTTCATGCGGGGC; chemistry not given here) |  | Fold (induction of luciferase gene expression) [3]: 3.26 fold |
| N5_7D11 (DNA CTGGGGAGTCCT; chemistry not given here) | 759.2 |  |

| Substance | Fold (induction of luciferase gene expression) [2] [fold] | other results |
| --- | --- | --- |
| N2_2F8 (DNA CTGGGGAGTCCTTCATGC; chemistry not given here) |  | Fold (induction of luciferase gene expression) [1]: 1.0 fold |
| N2_2C12 (CTGGGGAGTCCTTCATGC; chemistry not given here) |  | Fold (induction of luciferase gene expression) [1]: 1.1 fold |
| N2_2G9 (CTGGGGAGTCCTTCATGC; chemistry not given here) |  | Fold (induction of luciferase gene expression) [1]: 1.3 fold |
| N5_14G11 (CTGGGGAGTCCT; chemistry not given here) | 1775.3 |  |
| N5_7A7 (CTGGGGAGTCCT; chemistry not given here) | 1226.2 |  |
| N5_7B1 (CTGGGGAGTCCT; chemistry not given here) | 2062.3 |  |
| N5_3F9 (CTGGGGAGTCCT; chemistry not given here) | 909.7 |  |
| N2_2D3 (DNA CTGGGGAGTCCTTCATGC; chemistry not given here) |  | Fold (induction of luciferase gene expression) [1]: 0.9 fold |
| N1_2H2 (CTGGGGAGTCCTTCATGCGGGGC; chemistry not given here) |  | Fold (induction of luciferase gene expression) [3]: 2.85 fold |
| N2_2A12 (CTGGGGAGTCCTTCATGC; chemistry not given here) |  | Fold (induction of luciferase gene expression) [1]: 1.1 fold |
| N5_2G5 (CTGGGGAGTCCT; chemistry not given here) | 715.9 |  |
| N1_2H10 (CTGGGGAGTCCTTCATGCGGGGC; chemistry not given here) |  | Fold (induction of luciferase gene expression) [3]: 16.82 fold |
| N5_6A3 (CTGGGGAGTCCT; chemistry not given here) | 696.0 |  |
| N5_1A3 (CTGGGGAGTCCT; chemistry not given here) | 228.1 |  |
| N5_1B10 (CTGGGGAGTCCT; chemistry not given here) | 1013.6 |  |
| N5_1F3 (CTGGGGAGTCCT; chemistry not given here) | 212.8 |  |
| N5_7B5 (CTGGGGAGTCCT; chemistry not given here) | 779.9 |  |
| N5_9H1 (DNA CTGGGGAGTCCT; chemistry not given here) | 1494.7 |  |
| N5_1F10 (CTGGGGAGTCCT; chemistry not given here) | 1071.3 |  |
| N5_7F6 (DNA CTGGGGAGTCCT; chemistry not given here) | 898.5 |  |
| N5_7E2 (DNA CTGGGGAGTCCT; chemistry not given here) | 1234.5 |  |
| N5_9B8 (DNA CTGGGGAGTCCT; chemistry not given here) | 792.8 |  |
| N2_2B5 (CTGGGGAGTCCTTCATGC; chemistry not given here) |  | Fold (induction of luciferase gene expression) [1]: 1.0 fold |
| N5_3F10 (CTGGGGAGTCCT; chemistry not given here) | 894.3 |  |

| Substance | Fold (induction of luciferase gene expression) [2] [fold] | other results |
| --- | --- | --- |
| N1_2E6 (CTGGGGAGTCCTTCATGCGGGGC; chemistry not given here) |  | Fold (induction of luciferase gene expression) [3]: 30.39 fold |
| N5_1B7 (CTGGGGAGTCCT; chemistry not given here) | 662.1 |  |
| N5_12G11 (CTGGGGAGTCCT; chemistry not given here) | 1043.8 |  |
| N2_2A7 (CTGGGGAGTCCTTCATGC; chemistry not given here) |  | Fold (induction of luciferase gene expression) [1]: 0.9 fold |
| N2_2E2 (DNA CTGGGGAGTCCTTCATGC; chemistry not given here) |  | Fold (induction of luciferase gene expression) [1]: 1.1 fold |
| N5_1C11 (CTGGGGAGTCCT; chemistry not given here) | 484.2 |  |
| N2_2D2 (DNA CTGGGGAGTCCTTCATGC; chemistry not given here) |  | Fold (induction of luciferase gene expression) [1]: 1.1 fold |
| N5_1G5 (CTGGGGAGTCCT; chemistry not given here) | 804.6 |  |
| N5_2B5 (CTGGGGAGTCCT; chemistry not given here) | 1107.3 |  |
| N5_1H1 (CTGGGGAGTCCT; chemistry not given here) | 84.1 |  |
| N2_2F10 (DNA CTGGGGAGTCCTTCATGC; chemistry not given here) |  | Fold (induction of luciferase gene expression) [1]: 1.1 fold |
| N5_5D7 (CTGGGGAGTCCT; chemistry not given here) | 769.4 |  |
| N5_1F4 (CTGGGGAGTCCT; chemistry not given here) | 958.5 |  |
| N5_7C10 (CTGGGGAGTCCT; chemistry not given here) | 1090.7 |  |
| N5_1F1 (CTGGGGAGTCCT; chemistry not given here) | 557.2 |  |
| N5_1H6 (CTGGGGAGTCCT; chemistry not given here) | 654.9 |  |
| N5_1D2 (CTGGGGAGTCCT; chemistry not given here) | 561.3 |  |
| N2_2B3 (CTGGGGAGTCCTTCATGC; chemistry not given here) |  | Fold (induction of luciferase gene expression) [1]: 1.2 fold |
| N5_8D1 (DNA CTGGGGAGTCCT; chemistry not given here) | 1139.6 |  |
| N5_1A5 (CTGGGGAGTCCT; chemistry not given here) | 291.5 |  |
| N2_2H4 (CTGGGGAGTCCTTCATGC; chemistry not given here) |  | Fold (induction of luciferase gene expression) [1]: 1.0 fold |
| N2_2E8 (DNA CTGGGGAGTCCTTCATGC; chemistry not given here) |  | Fold (induction of luciferase gene expression) [1]: 0.9 fold |
| N5_13D1 (CTGGGGAGTCCT; chemistry not given here) | 722.9 |  |
